Patent US4715994A, “Novel antibacterial agents and potentiators of carbapenem antibiotics” (Merck & Co., Inc., priority 1986, dated 1987)
pKi: −log10 of the molar value.

What follows are compounds tested against T1, dehydropeptidase-I (renal dipeptidase, EC 3.4.13.11) (Sus scrofa, UniProt P22412) (assay: Renal dehydropeptidase I inhibition (hydrolysis of glycyldehydrophenylalanine)). Settings: not given.
T1 construct: isolated from hog kidneys; from tissue; host or cells: hog kidney, solubilized and lyophilized enzyme preparation
T1 sequence (P22412 17-409): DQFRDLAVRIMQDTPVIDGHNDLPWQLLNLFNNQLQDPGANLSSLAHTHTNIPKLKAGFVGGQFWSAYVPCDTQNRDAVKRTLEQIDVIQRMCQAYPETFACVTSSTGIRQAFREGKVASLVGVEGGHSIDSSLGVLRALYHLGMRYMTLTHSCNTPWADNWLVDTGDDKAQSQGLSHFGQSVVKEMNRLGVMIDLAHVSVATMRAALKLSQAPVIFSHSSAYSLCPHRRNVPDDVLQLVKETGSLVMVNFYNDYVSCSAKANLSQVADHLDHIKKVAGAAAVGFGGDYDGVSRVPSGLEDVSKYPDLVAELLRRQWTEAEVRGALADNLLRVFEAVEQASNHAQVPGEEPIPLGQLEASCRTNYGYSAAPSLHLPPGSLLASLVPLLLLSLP
Format: biochemical, hog
Experimental: This measured the ability of compounds to inhibit hydrolysis of glycyldehydrophenylalanine (GDP) by a solubilized preparation of […] isolated from hog kidneys. The procedure is as follows: to a 1 ml system containing 50 mM "MOPS" (3-(N-morpholino)propanesulfonic acid) buffer, pH 7.1, is added 5 μg of lyophilized enzyme, and the test compound at a final concentration of 0.1 mM. After a five minute incubation at 37° C., GDP is added to a final concentration of 0.05 mM. […] Inhibition of the enzyme is gauged by comparison to a standard run containing no inhibitor and is expressed as the inhibitor binding constant, Ki.

C=C(CP(=O)(O)[C@H](C)N)C(=O)O [L, R5 H] was tested. Which pKi did it give?
The pKi was 7.57.

CC(CP(=O)(O)[C@@H](C)N)C(=O)O (stereo partly drawn) [D, R2 methyl, R3 H, 1-D-Aminoethyl-(2-carboxy-1-propyl)phosphinic acid] was tested. Which pKi did it give?
Its pKi is 6.85.

CC(CP(=O)(O)C(C)N)C(=O)O (stereo not drawn) [DL, R2 methyl, R3 H, 1-Aminoethyl-(2-carboxy-1-propyl)phosphinic acid] was tested. Which pKi did it give?
The pKi was 8.00.

C=C(CP(=O)(O)[C@@H](C)N)C(=O)O [D, R5 H] was tested. Which pKi did it give?
Its pKi is 6.64.

CC(CP(=O)(O)[C@H](C)N)C(=O)O (stereo partly drawn) [L, R2 methyl, 1-L-Aminoethyl-(2-carboxy-1-propyl)phosphinic acid] was tested. Which pKi did it give?
Its pKi is 8.00.

How did the pKi turn out when C[C@H](N)P(=O)(O)CC(CCCc1ccccc1)C(=O)O (some centres unmarked) [L, R2 phenylpropyl] was run?
The pKi was 7.57.

Same assay, conditions: read-out: RENAL DEHYDROPEPTIDASE I INHIBITION Ki

How did the pKi turn out when CC(N)P(=O)(O)C/C(=C\CCc1ccccc1)C(=O)O (stereo not drawn) [DL, R5 phenethyl, Z, 1-Aminoethyl-(2-carboxy-5-phenyloct-2-enyl)phosphinic acid (E and Z isomers)] was run?
Its pKi is 7.80.

How did the pKi turn out when CC(N)P(=O)(O)CC(CCCc1ccncc1)C(=O)O (stereo not drawn) [DL, R2 4-pyridylpropyl, 1-Aminoethyl-[2-carboxy-5-(4-pyridyl)-1-n-pentyl]-phosphinic acid] was run?
Its pKi is 7.92.

CC(N)P(=O)(O)C/C(=C/CCc1ccccc1)C(=O)O (stereo not drawn) [DL, R5 phenethyl, E] was tested. Which pKi did it give?
Its pKi is 8.15.

How did the pKi turn out when CCCCCC=C(CP(=O)(O)C(C)N)C(=O)O (racemic) [DL, R5 n-pentyl, (E, Z isomers), 1-Aminoethyl-(2-carboxy-oct-2-enyl)phosphinic acid (E/Z mixture)] was run?
Its pKi is 8.24.

With C[C@@H](N)P(=O)(O)CC(CCCc1ccccc1)C(=O)O (some centres unmarked) [D, R2 phenylpropyl] as the compound, how does the pKi read?
Its pKi is 6.00.
